Data published in patent publication US6812380B2, “Compositions and methods of zearalenone detoxification” (Pioneer Hi-Bred International, Inc., priority 2001, dated 2004).

How the values were obtained:
[1] = target: T1, ZES2b translation products (Bionectria ochroleuca, UniProt Q8NKB0, A65V/H263Y/S41R/T3I); type: biochemical, Gliocladium roseum; conditions: 37° C. for 16 hours
T1 construct: made in house; host or cells: cell-free coupled transcription/translation (Roche RTS500; T7 polymerase, E. coli ribosomes) from plasmids pFMB35-34 (cDNA) and pFMB35-13 (genomic DNA)
T1 sequence (Q8NKB0 1-264 T3I/S41R/A65V/H263Y): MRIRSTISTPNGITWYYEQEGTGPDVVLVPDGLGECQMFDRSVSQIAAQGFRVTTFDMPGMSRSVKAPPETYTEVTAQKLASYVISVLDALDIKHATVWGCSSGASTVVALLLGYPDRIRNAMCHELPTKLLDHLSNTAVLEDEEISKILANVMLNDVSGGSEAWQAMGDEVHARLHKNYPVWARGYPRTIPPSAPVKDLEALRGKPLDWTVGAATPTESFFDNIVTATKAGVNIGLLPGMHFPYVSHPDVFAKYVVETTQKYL

[2] = test system: zearalenone esterase synthesis in G. roseum; conditions: cited from earlier work
[3] = test system: human breast cancer cells; conditions: cited from earlier work
rats = conditions: rat, in vivo; cited from earlier work
uterine tissues = conditions: mouse, in vivo; cited from earlier work
mice = conditions: mouse, in vivo; cited from earlier work
Armenian hamster = conditions: in vivo; cited from earlier work
humans = conditions: in vivo; cited from earlier work
[4] = test system: ZES1, ZES2, and ZES2b transcripts; test: Differential transcript profiling (Curagen Profiling) of G. roseum cultures; type: cell-based, Gliocladium roseum; conditions: G. roseum cultured with 10 μg/ml for 12 hours at 22° C.
Experimental: The ZES1, ZES2, and ZES2b sequences of the invention were identified by assaying for differential expression patterns in the presence of α-zearalenol and β-zearalenol, which allowed for identification of the nucleotide sequences of the invention. Specifically, G. roseum was cultured in the presence of either 10 μg/ml α-zearalenol or 10 μg/ml β-zearalenol for 12 hours at 22° C. Following culturing, Curagen Profiling technology was used to identify transcripts present in α-zearalenol-induced cultures but absent in β-zearalenol-induced cultures.

C[C@H]1CCCC(=O)CCC/C=C/c2cc(O)cc(O)c2C(=O)O1 [zearalenone]
degradation of substrate after incubation with the translation product of pFMB35-13 [1]: completely degraded
degradation of substrate after incubation with the translation product of pFMB35-34 [1]: completely degraded
induction of synthesis of zearalenone esterase in G. roseum [2]: occurs only when zearalenone or its derivative α-zearalenol is present in the culture medium
entry of human breast cancer cells into the cell cycle [3]: stimulates human breast cancer cells to enter the cell cycle
teratogenicity (rats): teratogenic
modulation of uterine tissues (uterine tissues): induce modulation of uterine tissues
carcinogenicity (mice): carcinogenic
induction of hepatic carcinomas (Armenian hamster): induce hepatic carcinomas
estrogenic effects in humans (humans): exhibits estrogenic effects
hyperestrogenic syndrome in humans (humans): causes hyperestrogenic syndrome

C[C@H]1CCC[C@H](O)CCC/C=C/c2cc(O)cc(O)c2C(=O)O1 [α-zearalenol]
degradation of substrate after incubation with the translation product of pFMB35-13 [1]: completely degraded
degradation of substrate after incubation with the translation product of pFMB35-34 [1]: completely degraded
expression of ZES1, ZES2, and ZES2b transcripts in induced cultures [4]: upregulated
induction of synthesis of zearalenone esterase in G. roseum [2]: occurs only when zearalenone or its derivative α-zearalenol is present in the culture medium

C[C@H]1CCC[C@@H](O)CCC/C=C/c2cc(O)cc(O)c2C(=O)O1 [β-zearalenol]
degradation of substrate after incubation with the translation product of pFMB35-13 [1]: completely degraded
degradation of substrate after incubation with the translation product of pFMB35-34 [1]: completely degraded
induction of synthesis of zearalenone esterase in G. roseum [2]: does not induce synthesis of zearalenone esterase
